# Reference: BigSolDB 2.1
structure (smiles),measurement,setting,value
O=c1cc(-c2ccccc2)oc2cc(O)cc(O)c12,solubility (mole fraction),"in DMF, 293.2 K",0.01
same,solubility (mole fraction),"in DMF, 298.2 K",0.0131
same,solubility (mole fraction),"in DMF, 303.2 K",0.0152
same,solubility (mole fraction),"in DMF, 308.2 K",0.0229
same,solubility (mole fraction),"in DMF, 313.2 K",0.0264
same,solubility (mole fraction),"in DMF, 318.2 K",0.0328
same,solubility (mole fraction),"in DMF, 323.2 K",0.0408
same,solubility (mole fraction),"in DMF, 328.2 K",0.0479
same,solubility (mole fraction),"in DMF, 333.2 K",0.0568
same,solubility (mole fraction),"in acetone, 293.2 K",0.00128
same,solubility (mole fraction),"in acetone, 298.2 K",0.00143
same,solubility (mole fraction),"in acetone, 303.2 K",0.00161
same,solubility (mole fraction),"in acetone, 308.2 K",0.00176
same,solubility (mole fraction),"in acetone, 313.2 K",0.00205
same,solubility (mole fraction),"in acetone, 318.2 K",0.00226
same,solubility (mole fraction),"in acetone, 323.2 K",0.00243
same,solubility (mole fraction),"in acetone, 328.2 K",0.00281
same,solubility (mole fraction),"in ethanol, 293.2 K",0.000455
same,solubility (mole fraction),"in ethanol, 298.2 K",0.000505
same,solubility (mole fraction),"in ethanol, 303.2 K",0.000637
same,solubility (mole fraction),"in ethanol, 308.2 K",0.000709
same,solubility (mole fraction),"in ethanol, 313.2 K",0.000822
same,solubility (mole fraction),"in ethanol, 318.2 K",0.000903
same,solubility (mole fraction),"in ethanol, 323.2 K",0.00113
same,solubility (mole fraction),"in ethanol, 328.2 K",0.00144
same,solubility (mole fraction),"in ethanol, 333.2 K",0.00171
same,solubility (mole fraction),"in ethyl acetate, 293.2 K",0.000716
same,solubility (mole fraction),"in ethyl acetate, 298.2 K",0.00082
same,solubility (mole fraction),"in ethyl acetate, 303.2 K",0.000893
same,solubility (mole fraction),"in ethyl acetate, 308.2 K",0.00101
same,solubility (mole fraction),"in ethyl acetate, 313.2 K",0.00113
same,solubility (mole fraction),"in ethyl acetate, 318.2 K",0.00134
same,solubility (mole fraction),"in ethyl acetate, 323.2 K",0.00144
same,solubility (mole fraction),"in ethyl acetate, 328.2 K",0.00163
same,solubility (mole fraction),"in ethyl acetate, 333.2 K",0.00176
same,solubility (mole fraction),"in isopropanol, 293.2 K",0.000512
same,solubility (mole fraction),"in isopropanol, 298.2 K",0.000614
same,solubility (mole fraction),"in isopropanol, 303.2 K",0.000707
same,solubility (mole fraction),"in isopropanol, 308.2 K",0.000836
same,solubility (mole fraction),"in isopropanol, 313.2 K",0.00104
same,solubility (mole fraction),"in isopropanol, 318.2 K",0.00121
same,solubility (mole fraction),"in isopropanol, 323.2 K",0.0014
same,solubility (mole fraction),"in isopropanol, 328.2 K",0.00185
same,solubility (mole fraction),"in isopropanol, 333.2 K",0.00213
same,solubility (mole fraction),"in methanol, 293.2 K",0.000226
same,solubility (mole fraction),"in methanol, 298.2 K",0.000238
same,solubility (mole fraction),"in methanol, 303.2 K",0.000299
same,solubility (mole fraction),"in methanol, 308.2 K",0.000324
same,solubility (mole fraction),"in methanol, 313.2 K",0.000406
same,solubility (mole fraction),"in methanol, 318.2 K",0.000453
same,solubility (mole fraction),"in methanol, 323.2 K",0.000576
same,solubility (mole fraction),"in methanol, 328.2 K",0.000711
same,solubility (mole fraction),"in methanol, 333.2 K",0.000813
same,solubility (mole fraction),"in n-butanol, 293.2 K",0.000586
same,solubility (mole fraction),"in n-butanol, 298.2 K",0.000663
same,solubility (mole fraction),"in n-butanol, 303.2 K",0.000833
same,solubility (mole fraction),"in n-butanol, 308.2 K",0.000981
same,solubility (mole fraction),"in n-butanol, 313.2 K",0.00115
same,solubility (mole fraction),"in n-butanol, 318.2 K",0.00138
same,solubility (mole fraction),"in n-butanol, 323.2 K",0.0016
same,solubility (mole fraction),"in n-butanol, 328.2 K",0.00195
same,solubility (mole fraction),"in n-butanol, 333.2 K",0.00229
same,solubility (mole fraction),"in n-hexane, 293.2 K",1.4e-07
same,solubility (mole fraction),"in n-hexane, 298.2 K",2.95e-07
same,solubility (mole fraction),"in n-hexane, 303.2 K",3.8e-07
same,solubility (mole fraction),"in n-hexane, 308.2 K",4.5e-07
same,solubility (mole fraction),"in n-hexane, 313.2 K",6.78e-07
same,solubility (mole fraction),"in n-hexane, 318.2 K",1.08e-06
same,solubility (mole fraction),"in n-hexane, 323.2 K",1.25e-06
same,solubility (mole fraction),"in n-hexane, 328.2 K",1.7e-06
same,solubility (mole fraction),"in n-hexane, 333.2 K",2.21e-06
same,solubility (mole fraction),"in n-propanol, 293.2 K",0.000482
same,solubility (mole fraction),"in n-propanol, 298.2 K",0.000569
same,solubility (mole fraction),"in n-propanol, 303.2 K",0.000724
same,solubility (mole fraction),"in n-propanol, 308.2 K",0.000837
same,solubility (mole fraction),"in n-propanol, 313.2 K",0.000971
same,solubility (mole fraction),"in n-propanol, 318.2 K",0.00123
same,solubility (mole fraction),"in n-propanol, 323.2 K",0.00147
same,solubility (mole fraction),"in n-propanol, 328.2 K",0.0017
same,solubility (mole fraction),"in n-propanol, 333.2 K",0.00195
same,solubility (mole fraction),"in water, 293.2 K",4.61e-09
same,solubility (mole fraction),"in water, 298.2 K",8.63e-09
same,solubility (mole fraction),"in water, 303.2 K",1.26e-08
same,solubility (mole fraction),"in water, 308.2 K",2.57e-08
same,solubility (mole fraction),"in water, 313.2 K",3.96e-08
same,solubility (mole fraction),"in water, 318.2 K",4.82e-08
same,solubility (mole fraction),"in water, 323.2 K",8.41e-08
same,solubility (mole fraction),"in water, 328.2 K",1.28e-07
same,solubility (mole fraction),"in water, 333.2 K",1.88e-07
